Assay results published in ChEMBL document CHEMBL4507295 (2021).

Key:
Conditions in all cases: Compound concentration 1000.0 nM
[1] = tested on: Tyrosine-protein kinase ABL1 (Homo sapiens), P00519 [T315I]
[2] = target: Activin receptor type-2A (Homo sapiens) (UniProt P27037)
[3] = target: Serine/threonine-protein kinase BRSK1 (Homo sapiens) (UniProt Q8TDC3)
[4] = target: Tyrosine-protein kinase BTK (Homo sapiens) (UniProt Q06187)
[5] = target: Calcium/calmodulin-dependent protein kinase type II subunit gamma (Homo sapiens) (UniProt Q13555)
[6] = target: Cyclin-dependent kinase 2 (Homo sapiens) (UniProt P24941)
[7] = target: Cyclin-dependent kinase 9 (Homo sapiens) (UniProt P50750)
Cyclin-dependent kinase 9 (Homo sapiens), sequence (P50750 whole entry): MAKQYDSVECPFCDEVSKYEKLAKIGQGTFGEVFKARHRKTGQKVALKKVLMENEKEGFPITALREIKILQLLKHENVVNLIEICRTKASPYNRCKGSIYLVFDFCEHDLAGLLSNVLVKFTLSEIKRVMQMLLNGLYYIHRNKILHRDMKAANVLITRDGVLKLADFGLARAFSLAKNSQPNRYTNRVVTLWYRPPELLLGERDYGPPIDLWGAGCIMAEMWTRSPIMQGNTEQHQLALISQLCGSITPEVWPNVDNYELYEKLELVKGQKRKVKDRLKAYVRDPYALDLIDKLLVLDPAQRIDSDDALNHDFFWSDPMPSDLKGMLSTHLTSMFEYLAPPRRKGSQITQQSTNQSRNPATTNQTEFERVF

[8] = target: Dual specificity protein kinase CLK1 (Homo sapiens) (UniProt P49759)
[9] = target: Dual specificity protein kinase CLK2 (Homo sapiens) (UniProt P49760)
[10] = target: Macrophage colony-stimulating factor 1 receptor (Homo sapiens) (UniProt P07333)
[11] = target: Casein kinase I isoform alpha-like (Homo sapiens) (UniProt Q8N752)
[12] = target: Casein kinase I isoform gamma-1 (Homo sapiens) (UniProt Q9HCP0)
[13] = target: Serine/threonine-protein kinase DCLK2 (Homo sapiens) (UniProt Q8N568)
Serine/threonine-protein kinase DCLK2 (Homo sapiens), sequence (Q8N568 whole entry): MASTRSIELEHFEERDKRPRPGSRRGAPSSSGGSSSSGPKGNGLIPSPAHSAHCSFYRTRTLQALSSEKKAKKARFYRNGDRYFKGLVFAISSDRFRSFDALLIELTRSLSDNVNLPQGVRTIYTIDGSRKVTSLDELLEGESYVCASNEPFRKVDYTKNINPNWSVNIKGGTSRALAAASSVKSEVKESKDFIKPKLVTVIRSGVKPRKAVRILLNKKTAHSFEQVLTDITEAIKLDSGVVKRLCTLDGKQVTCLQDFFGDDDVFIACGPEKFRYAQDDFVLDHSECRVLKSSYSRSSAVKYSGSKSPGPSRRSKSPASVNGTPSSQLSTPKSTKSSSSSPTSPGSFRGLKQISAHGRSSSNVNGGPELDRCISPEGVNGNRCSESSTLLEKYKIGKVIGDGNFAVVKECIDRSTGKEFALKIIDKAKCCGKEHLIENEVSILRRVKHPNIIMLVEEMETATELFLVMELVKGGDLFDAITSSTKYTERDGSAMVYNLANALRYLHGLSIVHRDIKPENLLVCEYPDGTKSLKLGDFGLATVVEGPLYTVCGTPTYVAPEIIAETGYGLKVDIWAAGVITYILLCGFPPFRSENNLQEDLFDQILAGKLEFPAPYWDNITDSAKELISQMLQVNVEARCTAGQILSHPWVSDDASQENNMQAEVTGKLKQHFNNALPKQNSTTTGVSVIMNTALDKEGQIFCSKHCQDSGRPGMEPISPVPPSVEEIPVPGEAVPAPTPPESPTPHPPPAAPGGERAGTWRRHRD

[14] = target: Serine/threonine-protein kinase 17B (Homo sapiens) (UniProt O94768)
[15] = tested on: Epidermal growth factor receptor (Homo sapiens), P00533 [L861Q]
[16] = target: Ephrin type-A receptor 1 (Homo sapiens) (UniProt P21709)
[17] = target: Receptor tyrosine-protein kinase erbB-3 (Homo sapiens) (UniProt P21860)
[18] = target: Mitogen-activated protein kinase 15 (Homo sapiens) (UniProt Q8TD08)
[19] = target: Focal adhesion kinase 1 (Homo sapiens) (UniProt Q05397)
[20] = target: Tyrosine-protein kinase Fes/Fps (Homo sapiens) (UniProt P07332)
[21] = target: Fibroblast growth factor receptor 4 (Homo sapiens) (UniProt P22455)
[22] = target: Tyrosine-protein kinase Fgr (Homo sapiens) (UniProt P09769)
[23] = target: Tyrosine-protein kinase JAK2 (Homo sapiens) (UniProt O60674)
Tyrosine-protein kinase JAK2 (Homo sapiens), sequence (O60674 whole entry): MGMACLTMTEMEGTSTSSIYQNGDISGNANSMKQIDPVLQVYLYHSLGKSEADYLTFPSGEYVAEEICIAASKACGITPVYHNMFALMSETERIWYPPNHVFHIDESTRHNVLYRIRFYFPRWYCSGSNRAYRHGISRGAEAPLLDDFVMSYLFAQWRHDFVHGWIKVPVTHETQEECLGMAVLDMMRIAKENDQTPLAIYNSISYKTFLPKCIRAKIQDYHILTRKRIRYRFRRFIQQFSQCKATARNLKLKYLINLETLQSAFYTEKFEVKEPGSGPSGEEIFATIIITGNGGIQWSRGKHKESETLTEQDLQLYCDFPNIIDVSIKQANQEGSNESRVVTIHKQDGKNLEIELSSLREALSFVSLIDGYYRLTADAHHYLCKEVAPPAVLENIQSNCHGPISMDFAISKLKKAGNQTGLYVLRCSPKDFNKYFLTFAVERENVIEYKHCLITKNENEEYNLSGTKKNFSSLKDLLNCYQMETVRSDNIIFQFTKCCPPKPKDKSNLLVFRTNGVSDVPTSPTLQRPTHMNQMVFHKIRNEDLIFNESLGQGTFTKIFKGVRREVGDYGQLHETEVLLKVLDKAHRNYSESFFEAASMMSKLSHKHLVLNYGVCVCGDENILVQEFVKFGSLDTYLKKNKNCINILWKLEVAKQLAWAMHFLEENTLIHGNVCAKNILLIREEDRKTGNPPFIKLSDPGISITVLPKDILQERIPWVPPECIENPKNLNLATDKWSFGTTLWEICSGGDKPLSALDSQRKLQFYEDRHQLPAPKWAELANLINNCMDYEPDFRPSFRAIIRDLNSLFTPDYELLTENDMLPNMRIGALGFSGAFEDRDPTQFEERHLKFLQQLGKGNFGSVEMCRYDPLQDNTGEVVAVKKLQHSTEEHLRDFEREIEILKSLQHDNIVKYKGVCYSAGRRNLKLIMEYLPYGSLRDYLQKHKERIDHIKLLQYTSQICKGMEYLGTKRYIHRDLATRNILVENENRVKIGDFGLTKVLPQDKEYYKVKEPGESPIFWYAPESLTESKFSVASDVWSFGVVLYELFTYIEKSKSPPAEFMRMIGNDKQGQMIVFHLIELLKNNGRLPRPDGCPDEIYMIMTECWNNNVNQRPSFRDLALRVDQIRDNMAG

[24] = target: Tyrosine-protein kinase JAK3 (Homo sapiens) (UniProt P52333)
[25] = target: Mitogen-activated protein kinase 8 (Homo sapiens) (UniProt P45983)
[26] = target: Mast/stem cell growth factor receptor Kit (Homo sapiens) (UniProt P10721)
[27] = target: Mitogen-activated protein kinase kinase kinase 13 (Homo sapiens) (UniProt O43283)
Mitogen-activated protein kinase kinase kinase 13 (Homo sapiens), sequence (O43283 whole entry): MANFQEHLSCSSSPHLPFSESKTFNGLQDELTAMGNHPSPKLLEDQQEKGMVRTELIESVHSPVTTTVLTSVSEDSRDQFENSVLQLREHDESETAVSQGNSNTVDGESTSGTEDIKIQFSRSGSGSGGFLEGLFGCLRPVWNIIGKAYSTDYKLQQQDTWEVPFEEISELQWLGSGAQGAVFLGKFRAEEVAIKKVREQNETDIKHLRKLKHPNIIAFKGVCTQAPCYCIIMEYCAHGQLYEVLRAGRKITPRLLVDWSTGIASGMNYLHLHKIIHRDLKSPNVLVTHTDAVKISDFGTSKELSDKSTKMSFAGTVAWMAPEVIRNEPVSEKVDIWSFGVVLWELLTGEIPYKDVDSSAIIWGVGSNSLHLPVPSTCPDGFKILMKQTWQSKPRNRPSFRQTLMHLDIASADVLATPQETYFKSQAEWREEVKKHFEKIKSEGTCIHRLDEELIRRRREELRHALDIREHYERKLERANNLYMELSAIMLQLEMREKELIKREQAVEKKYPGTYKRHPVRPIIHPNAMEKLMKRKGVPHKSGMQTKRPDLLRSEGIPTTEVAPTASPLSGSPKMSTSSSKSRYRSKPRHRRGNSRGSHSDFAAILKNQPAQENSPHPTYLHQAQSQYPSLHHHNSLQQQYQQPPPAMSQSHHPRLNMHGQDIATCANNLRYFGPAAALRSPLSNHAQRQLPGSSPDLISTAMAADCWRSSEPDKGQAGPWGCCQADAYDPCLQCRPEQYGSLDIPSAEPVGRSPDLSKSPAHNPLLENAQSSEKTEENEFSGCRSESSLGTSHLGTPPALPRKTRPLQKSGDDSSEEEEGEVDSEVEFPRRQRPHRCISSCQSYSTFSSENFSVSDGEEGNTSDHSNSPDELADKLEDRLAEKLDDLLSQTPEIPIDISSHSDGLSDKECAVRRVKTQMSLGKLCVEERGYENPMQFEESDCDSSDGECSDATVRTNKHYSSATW

[28] = target: MAP kinase-interacting serine/threonine-protein kinase 1 (Homo sapiens) (UniProt Q9BUB5)
[29] = target: Myosin light chain kinase (Homo sapiens) (UniProt Q32MK0)
[30] = target: Mitogen-activated protein kinase kinase kinase 9 (Homo sapiens) (UniProt P80192)
[31] = target: Macrophage-stimulating protein receptor (Homo sapiens) (UniProt Q04912)
[32] = target: Mitogen-activated protein kinase 14 (Homo sapiens) (UniProt Q16539)
[33] = target: Platelet-derived growth factor receptor alpha (Homo sapiens) (UniProt P16234)
Platelet-derived growth factor receptor alpha (Homo sapiens), sequence (P16234 whole entry, canonical isoform): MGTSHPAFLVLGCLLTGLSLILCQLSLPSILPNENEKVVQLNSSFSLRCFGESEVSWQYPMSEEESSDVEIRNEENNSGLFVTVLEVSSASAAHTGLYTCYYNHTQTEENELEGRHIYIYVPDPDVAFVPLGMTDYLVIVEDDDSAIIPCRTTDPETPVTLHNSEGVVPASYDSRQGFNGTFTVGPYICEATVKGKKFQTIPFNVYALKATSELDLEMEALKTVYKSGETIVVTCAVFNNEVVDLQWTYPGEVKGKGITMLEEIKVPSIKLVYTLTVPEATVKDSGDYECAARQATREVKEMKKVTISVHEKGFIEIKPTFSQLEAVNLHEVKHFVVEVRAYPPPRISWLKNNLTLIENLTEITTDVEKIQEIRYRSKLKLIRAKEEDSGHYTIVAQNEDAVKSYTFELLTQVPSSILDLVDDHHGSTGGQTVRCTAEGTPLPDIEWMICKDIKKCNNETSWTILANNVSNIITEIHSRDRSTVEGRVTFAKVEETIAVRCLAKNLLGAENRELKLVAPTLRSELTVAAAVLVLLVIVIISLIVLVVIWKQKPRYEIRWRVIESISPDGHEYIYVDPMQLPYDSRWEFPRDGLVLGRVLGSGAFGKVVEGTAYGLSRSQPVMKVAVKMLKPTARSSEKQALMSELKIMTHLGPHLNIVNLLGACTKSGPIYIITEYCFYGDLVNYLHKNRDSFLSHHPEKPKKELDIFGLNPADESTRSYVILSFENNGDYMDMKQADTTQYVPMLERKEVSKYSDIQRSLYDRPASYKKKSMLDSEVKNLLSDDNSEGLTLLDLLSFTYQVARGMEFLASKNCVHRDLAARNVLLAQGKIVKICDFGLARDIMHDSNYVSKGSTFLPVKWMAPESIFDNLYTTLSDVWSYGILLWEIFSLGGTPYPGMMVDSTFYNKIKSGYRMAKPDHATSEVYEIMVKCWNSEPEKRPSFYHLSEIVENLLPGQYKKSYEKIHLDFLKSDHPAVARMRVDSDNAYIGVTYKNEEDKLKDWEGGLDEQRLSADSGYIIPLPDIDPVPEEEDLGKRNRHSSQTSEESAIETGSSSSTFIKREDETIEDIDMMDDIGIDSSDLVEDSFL

[34] = target: Phosphatidylinositol 4,5-bisphosphate 3-kinase catalytic subunit gamma isoform (Homo sapiens) (UniProt P48736)
[35] = target: Phosphatidylinositol 5-phosphate 4-kinase type-2 gamma (Homo sapiens) (UniProt Q8TBX8)
[36] = target: Rho-associated protein kinase 1 (Homo sapiens) (UniProt Q13464)
[37] = target: Ribosomal protein S6 kinase alpha-4 (Homo sapiens) (UniProt O75676)
[38] = target: Ribosomal protein S6 kinase alpha-3 (Homo sapiens) (UniProt P51812)
[39] = target: Serine/threonine-protein kinase SBK1 (Homo sapiens) (UniProt Q52WX2)
[40] = target: STE20-like serine/threonine-protein kinase (Homo sapiens) (UniProt Q9H2G2)
[41] = target: SRSF protein kinase 3 (Homo sapiens) (UniProt Q9UPE1)
[42] = target: Serine/threonine-protein kinase 36 (Homo sapiens) (UniProt Q9NRP7)
[43] = target: Tyrosine-protein kinase SYK (Homo sapiens) (UniProt P43405)
[44] = target: TRAF2 and NCK-interacting protein kinase (Homo sapiens) (UniProt Q9UKE5)
[45] = target: Non-receptor tyrosine-protein kinase TYK2 (Homo sapiens) (UniProt P29597)
[46] = target: Serine/threonine-protein kinase WNK3 (Homo sapiens) (UniProt Q9BYP7)

Measured: residual activity

Serine/threonine-protein kinase BRSK1 (Homo sapiens), sequence (Q8TDC3 whole entry): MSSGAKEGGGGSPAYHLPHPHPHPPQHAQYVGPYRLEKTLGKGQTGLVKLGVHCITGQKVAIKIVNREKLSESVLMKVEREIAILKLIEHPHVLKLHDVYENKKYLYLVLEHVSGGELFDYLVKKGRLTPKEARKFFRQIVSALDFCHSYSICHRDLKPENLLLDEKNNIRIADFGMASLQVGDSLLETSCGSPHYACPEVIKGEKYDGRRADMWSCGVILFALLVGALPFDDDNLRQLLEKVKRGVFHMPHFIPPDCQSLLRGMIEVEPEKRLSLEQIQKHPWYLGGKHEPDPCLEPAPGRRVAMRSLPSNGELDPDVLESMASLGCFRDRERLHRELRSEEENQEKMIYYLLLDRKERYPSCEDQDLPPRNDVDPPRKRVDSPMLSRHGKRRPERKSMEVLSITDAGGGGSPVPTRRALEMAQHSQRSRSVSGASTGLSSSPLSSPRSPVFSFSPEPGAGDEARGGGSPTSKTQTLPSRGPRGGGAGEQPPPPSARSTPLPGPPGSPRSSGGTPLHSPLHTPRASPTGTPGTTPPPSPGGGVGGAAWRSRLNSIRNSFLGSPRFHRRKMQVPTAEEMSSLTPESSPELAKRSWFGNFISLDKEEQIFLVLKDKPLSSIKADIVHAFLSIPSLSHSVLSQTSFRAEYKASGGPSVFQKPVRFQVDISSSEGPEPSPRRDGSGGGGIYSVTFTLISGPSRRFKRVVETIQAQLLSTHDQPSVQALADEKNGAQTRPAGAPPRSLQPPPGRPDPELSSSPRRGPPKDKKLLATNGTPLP

N#CC1(c2ccccn2)CCN(Cc2cc(C(=O)O)c(=O)n3ccccc23)CC1 [MSD-M1PAM]
inactive: [1] 91% | [2] 95% | [3] 100% | [4] 100% | [5] 100% | [6] 100% | [7] 99% | [8] 80% | [9] 100% | [10] 100% | [11] 100% | [12] 100% | [13] 100% | [14] 100% | [15] 100% | [16] 100% | [17] 100% | [18] 100% | [19] 100% | [20] 99% | [21] 100% | [22] 94% | [23] 96% | [24] 95% | [25] 85% | [26] 100% | [27] 78% | [28] 85% | [29] 87% | [30] 92% | [31] 100% | [32] 100% | [33] 90% | [34] 91% | [35] 99% | [36] 86% | [37] 94% | [38] 100% | [39] 83% | [40] 99% | [41] 95% | [42] 100% | [43] 92% | [44] 100% | [45] 99% | [46] 99%

N#CC1(c2ccccn2)CCN(Cc2cc(C(=O)N3CCCC3)c(=O)n3ccccc23)CC1
inactive: [1] 100% | [2] 78% | [3] 87% | [4] 100% | [5] 100% | [6] 86% | [7] 88% | [8] 85% | [9] 100% | [10] 86% | [11] 91% | [12] 79% | [13] 100% | [14] 93% | [15] 79% | [16] 83% | [17] 93% | [18] 92% | [19] 89% | [20] 99% | [21] 90% | [22] 100% | [23] 85% | [24] 100% | [25] 96% | [26] 95% | [27] 100% | [28] 100% | [29] 76% | [30] 72% | [31] 100% | [32] 86% | [33] 97% | [34] 75% | [35] 58% | [36] 100% | [37] 79% | [38] 100% | [39] 89% | [40] 100% | [41] 82% | [42] 98% | [43] 92% | [44] 100% | [45] 91% | [46] 94%
